Calls of active or inactive are those of the source.
Experiments:
[1] = nonselective inhibitors of cellular cAMP signaling, dose response, counter-screen for MC4R biased antagonist project, cell-based, TR-FRET cAMP detection (AID 602305); assay type: functional;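 further: U2OS cells stimulated with forskolin near its EC80 as the cAMP inducer; potency is for inhibition of forskolin-stimulated cAMP signaling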
[2] = target: T1, Apoptotic protease-activating factor 1 (Homo sapiens, UniProt O14727); assay type: functional
T1 sequence (O14727 whole entry): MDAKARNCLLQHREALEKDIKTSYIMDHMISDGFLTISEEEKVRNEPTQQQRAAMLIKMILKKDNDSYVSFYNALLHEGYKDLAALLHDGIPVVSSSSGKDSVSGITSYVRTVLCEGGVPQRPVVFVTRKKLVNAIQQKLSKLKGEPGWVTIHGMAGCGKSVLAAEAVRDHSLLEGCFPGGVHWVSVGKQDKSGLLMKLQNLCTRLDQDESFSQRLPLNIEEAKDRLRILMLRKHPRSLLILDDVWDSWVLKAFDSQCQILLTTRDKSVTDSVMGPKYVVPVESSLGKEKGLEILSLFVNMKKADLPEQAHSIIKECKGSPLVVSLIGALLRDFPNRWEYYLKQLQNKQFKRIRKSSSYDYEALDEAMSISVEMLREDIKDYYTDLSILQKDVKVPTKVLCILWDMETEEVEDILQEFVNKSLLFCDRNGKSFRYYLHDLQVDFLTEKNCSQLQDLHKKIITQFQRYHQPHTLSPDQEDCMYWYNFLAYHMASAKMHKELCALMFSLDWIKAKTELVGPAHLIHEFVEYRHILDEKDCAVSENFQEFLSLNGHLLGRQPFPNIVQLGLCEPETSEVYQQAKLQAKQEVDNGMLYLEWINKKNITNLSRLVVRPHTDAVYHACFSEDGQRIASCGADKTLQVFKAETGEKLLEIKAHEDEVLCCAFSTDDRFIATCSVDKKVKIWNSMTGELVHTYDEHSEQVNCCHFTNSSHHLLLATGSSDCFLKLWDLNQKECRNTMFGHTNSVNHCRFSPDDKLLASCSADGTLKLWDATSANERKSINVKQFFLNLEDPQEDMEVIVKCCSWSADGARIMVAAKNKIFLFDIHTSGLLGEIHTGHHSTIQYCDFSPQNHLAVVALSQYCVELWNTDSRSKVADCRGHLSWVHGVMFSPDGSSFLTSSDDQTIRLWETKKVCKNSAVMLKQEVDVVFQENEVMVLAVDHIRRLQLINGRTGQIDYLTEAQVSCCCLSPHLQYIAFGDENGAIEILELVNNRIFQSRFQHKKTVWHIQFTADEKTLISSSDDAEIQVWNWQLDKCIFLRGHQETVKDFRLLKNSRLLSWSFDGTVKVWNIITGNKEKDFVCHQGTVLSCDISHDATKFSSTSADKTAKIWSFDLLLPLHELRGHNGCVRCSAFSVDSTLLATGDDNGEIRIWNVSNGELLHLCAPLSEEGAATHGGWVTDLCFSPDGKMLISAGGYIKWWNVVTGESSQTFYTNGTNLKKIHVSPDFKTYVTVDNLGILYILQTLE

CAAX prenyl protease 2 = target: T2, CAAX prenyl protease 2 (Saccharomyces cerevisiae S288c, UniProt Q03530); assay type: biochemical
T2 sequence (Q03530 whole entry): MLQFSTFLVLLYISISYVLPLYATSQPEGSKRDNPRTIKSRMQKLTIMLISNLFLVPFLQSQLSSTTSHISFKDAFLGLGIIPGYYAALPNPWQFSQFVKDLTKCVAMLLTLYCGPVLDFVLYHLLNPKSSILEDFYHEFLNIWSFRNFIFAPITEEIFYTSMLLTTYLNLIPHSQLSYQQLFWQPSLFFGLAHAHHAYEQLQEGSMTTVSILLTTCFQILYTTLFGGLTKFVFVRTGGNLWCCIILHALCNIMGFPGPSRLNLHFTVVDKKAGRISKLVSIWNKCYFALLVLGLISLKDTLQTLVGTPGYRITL

CAAX prenyl protease 1 = CAAX prenyl protease 1 (Saccharomyces cerevisiae S288c, UniProt P47154); experiment: Ste24 protease inhibitors, dose response, biochemical, S. cerevisiae, plate reader, cherry-pick (AID 488815)
CAAX prenyl protease 1, sequence (P47154 whole entry): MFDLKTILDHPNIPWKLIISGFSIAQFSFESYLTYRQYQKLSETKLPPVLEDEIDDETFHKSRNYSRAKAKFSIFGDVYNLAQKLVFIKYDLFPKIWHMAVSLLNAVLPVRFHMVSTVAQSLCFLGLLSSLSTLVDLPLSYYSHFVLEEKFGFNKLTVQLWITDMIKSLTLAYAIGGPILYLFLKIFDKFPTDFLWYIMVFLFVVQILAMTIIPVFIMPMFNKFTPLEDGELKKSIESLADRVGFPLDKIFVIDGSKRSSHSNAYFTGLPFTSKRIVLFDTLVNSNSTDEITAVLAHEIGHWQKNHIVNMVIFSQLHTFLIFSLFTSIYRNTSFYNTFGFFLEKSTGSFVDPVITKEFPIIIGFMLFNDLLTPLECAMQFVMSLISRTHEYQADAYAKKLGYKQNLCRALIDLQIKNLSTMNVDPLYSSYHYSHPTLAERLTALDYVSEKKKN

[3] = growth suppression of PTEN-null colon cells, dose response, cell-based, HCT116 PTEN knockout (AID 1047); assay type: functional;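 further: HCT116 colon tumor cells with PTEN knocked out; cells exposed to compound for 60 hours before readout; potency for loss of cell viability measured by luminescence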
[4] = growth suppression of beta-catenin-knockout colon cells, dose response, cell-based, HCT116, human colon tumor (AID 1045); assay type: functional;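 further: HCT116 colon tumor cells with beta catenin knocked out; cells exposed to compound for 60 hours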
[5] = target: Nucleotide-binding oligomerization domain-containing protein 2 (Homo sapiens, UniProt Q9HC29); experiment: NOD2 signaling inhibitors, cell-based, luminescence, uHTS, HEK293 (AID 1566); assay type: functional
Nucleotide-binding oligomerization domain-containing protein 2, sequence (Q9HC29 whole entry, the tested form may be a part): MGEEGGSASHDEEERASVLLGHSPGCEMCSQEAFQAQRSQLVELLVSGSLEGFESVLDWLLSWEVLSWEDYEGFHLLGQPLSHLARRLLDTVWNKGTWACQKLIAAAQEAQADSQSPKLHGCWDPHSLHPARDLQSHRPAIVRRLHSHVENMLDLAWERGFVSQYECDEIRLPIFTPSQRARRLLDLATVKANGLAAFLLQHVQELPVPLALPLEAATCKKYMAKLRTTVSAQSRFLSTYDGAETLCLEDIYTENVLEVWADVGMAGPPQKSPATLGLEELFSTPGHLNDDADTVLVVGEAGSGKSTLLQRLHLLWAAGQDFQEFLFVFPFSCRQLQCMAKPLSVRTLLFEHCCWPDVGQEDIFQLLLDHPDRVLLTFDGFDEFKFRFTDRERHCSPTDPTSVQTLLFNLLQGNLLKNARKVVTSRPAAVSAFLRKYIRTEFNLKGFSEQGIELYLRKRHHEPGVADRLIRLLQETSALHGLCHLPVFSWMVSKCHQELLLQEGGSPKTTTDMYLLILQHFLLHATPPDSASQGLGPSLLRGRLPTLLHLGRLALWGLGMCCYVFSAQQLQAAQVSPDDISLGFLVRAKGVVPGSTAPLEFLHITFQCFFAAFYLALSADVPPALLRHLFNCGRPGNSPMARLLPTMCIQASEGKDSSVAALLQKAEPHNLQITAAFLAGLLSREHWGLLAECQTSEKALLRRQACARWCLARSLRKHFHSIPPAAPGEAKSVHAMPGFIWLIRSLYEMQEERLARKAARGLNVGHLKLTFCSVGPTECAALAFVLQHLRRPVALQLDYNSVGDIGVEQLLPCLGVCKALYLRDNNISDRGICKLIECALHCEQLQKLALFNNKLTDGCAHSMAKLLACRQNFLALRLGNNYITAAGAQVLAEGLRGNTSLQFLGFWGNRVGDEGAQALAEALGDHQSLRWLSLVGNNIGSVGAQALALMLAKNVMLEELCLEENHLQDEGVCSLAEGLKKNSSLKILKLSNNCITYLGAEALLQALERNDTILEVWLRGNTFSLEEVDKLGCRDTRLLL

HEK293 [6] = experiment: NOD2 signaling inhibitors in MDP-stimulated cells, cell-based, uHTS, luminescence (AID 2001); assay type: functional; conditions: Homo sapiens
Paired box protein Pax-8 = Paired box protein Pax-8 (Homo sapiens, UniProt Q06710); experiment: inhibitors of PAX8-driven TPO luciferase reporter, dose response, RMG-I cells, cherry-pick (AID 687027); assay type: functional, cell-based;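 further: luciferase reporter driven by Pax8 target thyroperoxidase promoter measured by SteadyGlo luminescence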
Paired box protein Pax-8, sequence (Q06710 whole entry): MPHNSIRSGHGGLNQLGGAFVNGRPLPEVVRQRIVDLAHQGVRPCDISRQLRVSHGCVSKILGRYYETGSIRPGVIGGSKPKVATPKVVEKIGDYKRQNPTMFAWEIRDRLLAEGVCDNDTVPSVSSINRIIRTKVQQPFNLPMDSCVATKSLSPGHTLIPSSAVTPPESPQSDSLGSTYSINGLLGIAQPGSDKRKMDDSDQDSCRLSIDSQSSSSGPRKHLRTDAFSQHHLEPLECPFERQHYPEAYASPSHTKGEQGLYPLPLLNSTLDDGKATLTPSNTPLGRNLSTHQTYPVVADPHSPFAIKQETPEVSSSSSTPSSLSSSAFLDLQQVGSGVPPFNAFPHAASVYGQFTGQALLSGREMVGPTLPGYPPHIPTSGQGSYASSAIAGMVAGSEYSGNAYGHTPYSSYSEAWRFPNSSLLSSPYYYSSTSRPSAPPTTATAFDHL

[7] = non-specific cell cytotoxicity, dose response, cytotoxicity control for PAX8 inhibitor project, plate reader, dry powder samples (AID 743021); assay type: functional, cell-based
HEK293 [8] = experiment: cells; assay type: functional, cell-based; conditions: Homo sapiens
[9] = target: T3, Heat shock factor protein 1 (Mus musculus, UniProt P38532); experiment: inhibition of MG132-induced HSE-luciferase signal, confirmation, cell-based, NIH3T3, luminescence, dose retest (AID 2382); assay type: functional;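 further: NIH3T3 fibroblasts with HSF1-driven luciferase reporter stressed by proteasome inhibitor MG132; luminescence from HSF1-driven luciferase expression after 8 hours of MG132 stress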
T3 sequence (P38532 whole entry): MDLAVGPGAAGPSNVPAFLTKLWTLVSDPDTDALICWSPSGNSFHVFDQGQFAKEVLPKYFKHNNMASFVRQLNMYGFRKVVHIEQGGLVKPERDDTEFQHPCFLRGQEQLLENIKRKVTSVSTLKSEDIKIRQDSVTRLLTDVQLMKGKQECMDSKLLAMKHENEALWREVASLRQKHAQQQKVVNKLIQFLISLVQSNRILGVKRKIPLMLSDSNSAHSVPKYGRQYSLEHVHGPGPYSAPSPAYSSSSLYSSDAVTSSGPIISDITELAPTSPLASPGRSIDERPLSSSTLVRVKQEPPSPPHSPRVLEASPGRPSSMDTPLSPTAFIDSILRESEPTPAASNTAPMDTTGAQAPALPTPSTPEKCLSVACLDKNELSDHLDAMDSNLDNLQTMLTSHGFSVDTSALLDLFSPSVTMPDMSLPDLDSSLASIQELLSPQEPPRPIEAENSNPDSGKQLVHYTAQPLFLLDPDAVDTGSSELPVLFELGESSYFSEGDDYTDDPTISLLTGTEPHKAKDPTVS

## CCCCCCCCCC[N+](C)(C)CC/C=C1/c2ccccc2Sc2ccc(Cl)cc21
[1]
  IC50: 22.6 µM (inactive)
[2]
  IC50: 10.6 µM (active)
CAAX prenyl protease 2
  AC50: 4.96 µM (active)
CAAX prenyl protease 1
  AC50: 6.47 µM (active)

## COc1cc(/C=C/c2cc[n+](C)cc2)ccc1OCC(=O)Nc1ccc(Cl)c(Cl)c1
[2]
  IC50: 22.6 µM (active)

## O=C(NCCc1ccccc1)C(c1cccs1)N(C(=O)CCl)c1ccc(Cl)cc1 (stereo not drawn)
[3]
  EC50: 3.7 µM (active)
[4]
  EC50: 2.62 µM (active)
[5]
  EC50: > 20 µM (inactive)
HEK293 [6]
  IC50: 5.36 µM (active)
Paired box protein Pax-8
  AC50: 2.84 µM (active)
[7]
  AC50: 6.13 µM (active)
HEK293 [8]
  IC50: 4.24 µM (active)
[9]
  EC50: 1.28 µM (active)
